Results reported in patent publication US7943621B2, “Salts of piperazine compounds as D3/D2 antagonists” (Richter Gedeon Nyrt., priority 2008, dated 2011).
Structures can show the parent of a compound that is named as a salt.

Columns and labels:
[1] = stability when stored in the solid state (long term and accelerated); type: physicochemical
[2] = thermal stability by thermogravimetric (TG) and DSC analysis; type: physicochemical; settings: solvent-free anhydrous form, 10° C./min, N2
Experimental: The characterization of trans 4-{2-[4-(2,3-dichlorophenyl)-piperazine-1-yl]-ethyl}-N,N-dimethylcarbamoyl-cyclohexylamine monohydrochloride was carried out by thermogravimetric (TG), differential scanning […] (DSC), infrared spectroscopic (FT-IR), Raman spectroscopic (FT-Raman) and powder X-ray diffraction (PXRD) solid phase analytical methods.

long term stability ([1]; 25±2° C./60±5% RH): 48 months | accelerated stability ([1]; 40±2° C./75±5% RH): 6 months | satisfactory thermal stability up to [2]: about 200 °C
Compound: CN(C)C(=O)NC1CCC(CCN2CCN(c3cccc(Cl)c3Cl)CC2)CC1 (stereo not drawn) [monohydrochloride, Trans 4-{2-[4-(2,3-dichlorophenyl)-piperazine-1-yl]-ethyl}-N,N-dimethylcarbamoyl-cyclohexylamine monohydrochloride]
